# Biological target: SMARCA2 (Homo sapiens, UniProt P51531)
# Assay: MSD SMARCA2 degradation in NCI-H1299 cell line (24 h)
# Format: cell-based
# Parameters: HC: NCI-H1299 cells treated with DMSO; host or cells: NCI-H1299
# Details: for Dmax: NCI-H1299, NCI-H1299 cells; for DC50: NCI-H1299 cells, read-out: SMARCA2 MSD H1299 degradation 24 h: External Abs-DC50
# Method: Example 32. MSD SMARCA2 Degradation in […] Cell Line
# Cell Culture: Cells were cultured in exponential growth phase.
# Compound Preparation and Treatment: NCI-H1299 cells were seeded into the 96-well plate at 4.0*10^4 cells per 100 ul per well. Incubate the plate in the incubator overnight. The next day, compounds were diluted to designed stock concentration by TECAN, then perform a 3 fold, 9-point dilution via transferring 15 uL compound into 30 μL DMSO using Apricot. 200 nL diluted compound from compound source plate were transferred into the 96-intermediate plate as designated by using Echo550, followed with 100 ul culture medium to make the 2× compound solution. Cell plate were changed with 80 ul of fresh culture medium and 80 ul of 2× compound solution was added into the well to achieve the final designed concentration. Cell plate was then shaken at 720 rpm for 5 min and incubated for 24 hours in the incubator.
# Sample Preparation: Media was aspirated from the cultures and the plate was washed with PBS twice. 60 ul of pre-chilled PIPA lysis buffer (Boston BioProducts BP-115D) with protease inhibitor were directly added into the well to lyze the cells for 20 minutes at 4° C. Cell lysates were collected.
# MSD Procedure: The MSD plate was coated with 40 ul cell lysate and incubated at 4° C. overnight. The next day, the MSD coated bare plate was washed 3 times with 150 ul 1×TBST per well, blocked with 150 ul of blocking buffer per well, and shaken for 1 hour at RT, 600 rpm. Blocking buffer was 3% Blocker A in TBST. MSD plate was then washed 3 times with 150 ul 1×TBST per well and Primary Detection antibody (Rabbit anti-SMARCA2/BRM antibody, 100 μg/ml, ab223735) was added to a final [conc.]: 0.3 ug/ml, 25 ul/well and shaken for 1 hour at RT, 600 rpm. Antibody was prepared in Antibody Detection buffer (1% Blocker A in 1×TBST). The MSD plate was then washed 3 times with 150 ul 1×TBST per well. Secondary Detection antibody (SULFO-TAG anti-species antibody) was then added to a final [conc.]: 1 ug/ml, 25 ul/well, and shaken for 1 hour at RT, 600 rpm. Antibodies were prepared in Antibody Detection buffer (1% Blocker A in 1×TBST). MSD plate was washed 3 times with 150 ul 1×TBST per well and 2×MSD reading buffer was added, 150 ul per well, and diluted from 4× with water. MSD instrument was then read.
# Data Analysis: The percentage of relative level of SMARCA2 level was calculated following equation below.
# LC: A2780, SMARCA2 negative cells. HC: NCI-H1299 cells treated with DMSO.
# The letter codes for the percentage of SMARCA2 degradation after 24 hours (Dmax %) include: A (>90% degradation), B (>70-90 degradation), C (50-70 degradation), and D (<50% degradation).
# Chain of SMARCA2 (P51531 whole entry): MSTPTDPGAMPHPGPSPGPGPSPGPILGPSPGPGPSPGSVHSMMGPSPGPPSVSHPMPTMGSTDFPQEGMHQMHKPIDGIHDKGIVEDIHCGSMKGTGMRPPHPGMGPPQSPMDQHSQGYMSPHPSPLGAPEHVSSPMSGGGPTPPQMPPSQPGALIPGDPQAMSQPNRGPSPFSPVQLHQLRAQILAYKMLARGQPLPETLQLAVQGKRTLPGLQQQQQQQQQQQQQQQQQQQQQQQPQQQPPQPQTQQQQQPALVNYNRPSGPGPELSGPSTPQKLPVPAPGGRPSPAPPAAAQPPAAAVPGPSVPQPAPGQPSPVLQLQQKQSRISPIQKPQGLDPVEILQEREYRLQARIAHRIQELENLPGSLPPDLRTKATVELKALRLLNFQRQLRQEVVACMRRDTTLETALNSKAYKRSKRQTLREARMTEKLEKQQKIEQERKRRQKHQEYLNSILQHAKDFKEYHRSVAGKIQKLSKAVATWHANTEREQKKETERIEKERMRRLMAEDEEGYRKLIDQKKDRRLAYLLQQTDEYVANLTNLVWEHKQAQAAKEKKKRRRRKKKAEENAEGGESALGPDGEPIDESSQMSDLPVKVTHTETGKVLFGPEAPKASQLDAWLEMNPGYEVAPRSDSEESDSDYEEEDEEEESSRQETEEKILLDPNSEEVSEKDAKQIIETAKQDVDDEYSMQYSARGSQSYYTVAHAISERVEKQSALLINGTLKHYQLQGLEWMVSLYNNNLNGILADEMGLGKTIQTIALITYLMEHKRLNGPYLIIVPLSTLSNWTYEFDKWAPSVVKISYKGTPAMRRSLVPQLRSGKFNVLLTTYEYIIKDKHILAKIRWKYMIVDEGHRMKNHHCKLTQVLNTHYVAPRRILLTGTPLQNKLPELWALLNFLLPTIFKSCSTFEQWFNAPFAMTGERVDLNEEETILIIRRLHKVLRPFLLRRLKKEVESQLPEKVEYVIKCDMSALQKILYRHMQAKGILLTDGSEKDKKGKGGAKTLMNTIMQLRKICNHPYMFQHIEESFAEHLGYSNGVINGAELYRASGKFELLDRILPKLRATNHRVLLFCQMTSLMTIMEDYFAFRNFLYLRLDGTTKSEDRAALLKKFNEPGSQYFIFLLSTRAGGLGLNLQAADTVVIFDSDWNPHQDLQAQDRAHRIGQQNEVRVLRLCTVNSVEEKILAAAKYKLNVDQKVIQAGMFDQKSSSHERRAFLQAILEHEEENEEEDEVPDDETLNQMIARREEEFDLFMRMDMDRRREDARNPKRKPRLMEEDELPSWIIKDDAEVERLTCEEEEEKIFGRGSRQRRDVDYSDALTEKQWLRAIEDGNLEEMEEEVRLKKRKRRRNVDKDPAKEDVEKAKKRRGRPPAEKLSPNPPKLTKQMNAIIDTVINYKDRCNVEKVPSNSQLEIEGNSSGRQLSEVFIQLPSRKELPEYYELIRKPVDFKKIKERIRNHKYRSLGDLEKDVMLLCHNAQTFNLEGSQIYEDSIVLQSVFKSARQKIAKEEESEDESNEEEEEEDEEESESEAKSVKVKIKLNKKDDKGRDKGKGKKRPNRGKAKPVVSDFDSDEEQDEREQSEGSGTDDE
Dmax [%],DC50 [nM],SMILES
< 50,> 1000,Cn1c(=O)n(C2CCC(=O)NC2=O)c2cccc(CCCCCCCOc3cccc(CN4CCN(c5cc(-c6ccccc6O)nnc5N)CC4)c3)c21 (centres unmarked) [I-99]
,> 1000,CC(c1ccc(C(=O)NCCOCCOCCOCCCc2ccc3c(c2)n(C)c(=O)n3C2CCC(=O)NC2=O)cc1)n1cc(-c2cc(-c3ccccc3O)nnc2N)cn1 (centres unmarked) [I-12]
< 50,> 1000,Cn1c(=O)n(C2CCC(=O)NC2=O)c2ccc(CCCCOc3cccc(CN4CCN(c5cc(-c6ccccc6O)nnc5N)CC4)c3)cc21 (centres unmarked) [I-101]
< 50,> 1000,"Cn1c(=O)n(C2CCC(=O)NC2=O)c2cccc(CNCCc3cn(Cc4cccc(N5C[C@H]6C[C@@H]5CN6/C=C/C(=O)c5ccccc5O)n4)nn3)c21 (stereo partly drawn) [I-78, 3-[4-[[2-[1-[[6-[(1R,4R)-5-[(E)-3-(2-hydroxyphenyl)-3-oxo-prop-1-enyl]-2,5-diazabicyclo[2.2.1]heptan-2-yl]-2-pyridyl]methyl]triazol-4-yl]ethylamino]methyl]-3-methyl-2-oxo-benzimidazol-1-yl]piperidine-2,6-dione]"
< 50,> 1000,Cn1c(=O)n(C2CCC(=O)NC2=O)c2ccc(CCCCc3cn(Cc4cccc(N5C[C@H]6C[C@@H]5CN6/C=C/C(=O)c5ccccc5O)n4)nn3)cc21 (some centres unmarked) [I-44]
< 50,> 1000,"Cc1ncsc1-c1ccc(CNC(=O)[C@@H]2C[C@@H](O)CN2C(=O)[C@@H](NC(=O)CCCCCN(C)Cc2ccc(N3CCN(c4cc(-c5ccccc5O)nnc4N)CC3)cc2)C(C)(C)C)cc1 [I-212, (2S,4R)-1-[(2S)-2-[6-[[4-[4-[3-amino-6-(2-hydroxyphenyl)pyridazin-4-yl]piperazin-1-yl]phenyl]methyl-methyl-amino]hexanoylamino]-3,3-dimethyl-butanoyl]-4-hydroxy-N-[[4-(4-methylthiazol-5-yl)phenyl]methyl]pyrrolidine-2-carboxamide]"
,> 1000,CN[C@@H](C)C(=O)N[C@H](C(=O)N1Cc2cc(OCCOCCOCCOCCOCCOCCNC(=O)CCCCCCCCOc3ccnc(N4C[C@H]5C[C@@H]4CN5/C=C/C(=O)c4ccccc4O)c3)ccc2C[C@H]1C(=O)N[C@@H]1CCCc2ccccc21)C(C)(C)C [I-202]
50 to 70,100 to 500,Cn1c(=O)n(C2CCC(=O)NC2=O)c2ccc(CCCCCN3CCCC(n4cc(-c5cc(-c6ccccc6O)nnc5N)cn4)C3)cc21 (centres unmarked) [I-179]
< 50,> 1000,Cn1c(=O)n(C2CCC(=O)NC2=O)c2ccc(C#CCCCCCc3cn(Cc4cccc(N5C[C@H]6C[C@@H]5CN6/C=C/C(=O)c5ccccc5O)n4)nn3)cc21 (some centres unmarked) [I-62]
< 50,> 1000,Cn1c(=O)n(C2CCC(=O)NC2=O)c2cccc(CCCCOc3ccc(CN4CCN(c5cc(-c6ccccc6O)nnc5N)CC4)cc3)c21 (centres unmarked) [I-91]
< 50,> 1000,Cn1c(=O)n(C2CCC(=O)NC2=O)c2ccc(C#CCCCCc3cn(Cc4cccc(N5C[C@H]6C[C@@H]5CN6/C=C/C(=O)c5ccccc5O)n4)nn3)cc21 (some centres unmarked) [I-61]
,> 1000,Cn1c(=O)n(C2CCC(=O)NC2=O)c2ccc(CNCc3cn(Cc4cccc(N5C[C@H]6C[C@@H]5CN6/C=C/C(=O)c5ccccc5O)n4)nn3)cc21 (some centres unmarked) [I-27]
< 50,> 1000,Cn1c(=O)n(C2CCC(=O)NC2=O)c2cccc(C#CCCCc3cn(Cc4cccc(N5C[C@H]6C[C@@H]5CN6/C=C/C(=O)c5ccccc5O)n4)nn3)c21 (some centres unmarked) [I-65]
< 50,> 1000,Cn1c(=O)n(C2CCC(=O)NC2=O)c2ccc(CCCOc3cccc(CN4CCN(c5cc(-c6ccccc6O)nnc5N)CC4)c3)cc21 (centres unmarked) [I-100]
> 90,> 1000,CC(C)(CCOCCCc1cccc2c1oc(=O)n2C1CCC(=O)NC1=O)NCc1ccc(N2CCN(c3cc(-c4ccccc4O)nnc3N)CC2)cc1 (centres unmarked) [I-129]
,> 1000,CC(c1ccc(C(=O)NCCOCCOCCCc2ccc3c(c2)n(C)c(=O)n3C2CCC(=O)NC2=O)cc1)n1cc(-c2cc(-c3ccccc3O)nnc2N)cn1 (centres unmarked) [I-16]
,> 1000,CN[C@@H](C)C(=O)N[C@H](C(=O)N1Cc2cc(OCCOCCOCCOCCNC(=O)CCCOc3cccc(N4C[C@H]5C[C@@H]4CN5/C=C/C(=O)c4ccccc4O)n3)ccc2C[C@H]1C(=O)N[C@@H]1CCCc2ccccc21)C(C)(C)C [I-199]

# The next lines start with the compound.
SMILES,Dmax [%],DC50 [nM]
O=C1CCC(N2C(=O)c3cccc(OCCc4cn(CCCc5cccc(N6C[C@H]7C[C@@H]6CN7/C=C/C(=O)c6ccccc6O)n5)nn4)c3C2=O)C(=O)N1 (some centres unmarked) [I-69],< 50,> 1000
Cn1c(=O)n(C2CCC(=O)NC2=O)c2ccc(CCCCCCCCCN3CCC(Cn4cc(-c5cc(-c6ccccc6O)nnc5N)cn4)CC3)cc21 (centres unmarked) [I-148],> 90,< 100
CN(CCOCCCc1ccc2c(c1)n(C)c(=O)n2C1CCC(=O)NC1=O)Cc1ccc(N2CCN(c3cc(-c4ccccc4O)nnc3N)CC2)cc1 (centres unmarked) [I-125],< 50,> 1000
Cn1c(=O)n(C2CCC(=O)NC2=O)c2ccc(COCCCN3CCN(Cc4ccc(-c5cc(-c6ccccc6O)nnc5N)cc4)CC3)cc21 (centres unmarked) [I-141],< 50,100 to 500
Cc1ncsc1-c1ccc(CNC(=O)[C@@H]2C[C@@H](O)CN2C(=O)[C@@H](NC(=O)COCCOCCOCCNC(=O)CCCCCCCCOc2ccnc(N3C[C@H]4C[C@@H]3CN4/C=C/C(=O)c3ccccc3O)c2)C(C)(C)C)cc1 [I-220],,> 1000
Cn1c(=O)n(C2CCC(=O)NC2=O)c2ccc(CCCCCCOc3cccc(CN4CCN(c5cc(-c6ccccc6O)nnc5N)CC4)c3)cc21 (centres unmarked) [I-103],< 50,> 1000
Cn1c(=O)n(C2CCC(=O)NC2=O)c2cccc(CN3CCC(n4cc(-c5cc(-c6ccccc6O)nnc5N)cn4)CC3)c21 (centres unmarked) [I-173],< 50,> 1000
Cn1c(=O)n(C2CCC(=O)NC2=O)c2cccc(CCCCCCCc3cn(Cc4cccc(N5C[C@H]6C[C@@H]5CN6/C=C/C(=O)c5ccccc5O)n4)nn3)c21 (some centres unmarked) [I-52],< 50,> 1000
Cn1c(=O)n(C2CCC(=O)NC2=O)c2ccc(CCCOCCCN3CCN(Cc4ccc(-c5cc(-c6ccccc6O)nnc5N)cc4)CC3)cc21 (centres unmarked) [I-153],50 to 70,< 100
Cn1c(=O)n(C2CCC(=O)NC2=O)c2ccc(CCCCCCCc3cnc(N4C5CCC4CN(c4cc(-c6ccccc6O)nnc4N)C5)nc3)cc21 (centres unmarked) [I-88],> 90,< 100
Cn1c(=O)n(C2CCC(=O)NC2=O)c2ccc(CCCCOc3ccc(CN4CCN(c5cc(-c6ccccc6O)nnc5N)CC4)cc3)cc21 (centres unmarked) [I-84],< 50,> 1000
Cn1c(=O)n(C2CCC(=O)NC2=O)c2ccc(CCCCN3CCN(Cc4ccc(-c5cc(-c6ccccc6O)nnc5N)cc4)CC3)cc21 (centres unmarked) [I-154],< 50,> 1000
COc1cc(C(=O)NCCCCCCCCCNCc2ccc(N3CCN(c4cc(-c5ccccc5O)nnc4N)CC3)cc2)ccc1NC(=O)[C@@H]1N[C@@H](CC(C)(C)C)[C@](C#N)(c2ccc(Cl)cc2F)[C@H]1c1cccc(Cl)c1F [I-235],< 50,> 1000
Cc1ncsc1-c1ccc(CNC(=O)[C@@H]2C[C@@H](O)CN2C(=O)[C@@H](NC(=O)CCCCCCCN(C)Cc2ccc(N3CCN(c4cc(-c5ccccc5O)nnc4N)CC3)cc2)C(C)(C)C)cc1 [I-216],70 to 90,501 to 1000
Cn1c(=O)n(C2CCC(=O)NC2=O)c2ccc(CN3CCC(n4cc(-c5cc(-c6ccccc6O)nnc5N)cn4)CC3)cc21 (centres unmarked) [I-181],< 50,> 1000
Cn1c(=O)n(C2CCC(=O)NC2=O)c2ccc(CCCCCCCCc3cn(Cc4cccc(N5C[C@H]6C[C@@H]5CN6/C=C/C(=O)c5ccccc5O)n4)nn3)cc21 (some centres unmarked) [I-48],< 50,> 1000
CN1C(=O)CCC(n2c(=O)n(C)c3c(CCCOCCOCCNCc4ccc(N5CCN(c6cc(-c7ccccc7O)nnc6N)CC5)cc4)cccc32)C1=O (centres unmarked) [I-113],< 50,> 1000
CN(Cc1ccc(N2CCN(c3cc(-c4ccccc4O)nnc3N)CC2)cc1)C1CCN(Cc2cccc3c2n(C)c(=O)n3C2CCC(=O)NC2=O)CC1 (centres unmarked) [I-109],70 to 90,100 to 500
CN[C@@H](C)C(=O)N[C@H](C(=O)N1Cc2cc(OCCOCCOCCNC(=O)CCCOc3cccc(N4C[C@H]5C[C@@H]4CN5/C=C/C(=O)c4ccccc4O)n3)ccc2C[C@H]1C(=O)N[C@@H]1CCCc2ccccc21)C(C)(C)C [I-200],,> 1000

# Reference: US12624044B2, “SMARCA degraders and uses thereof” (Kymera Therapeutics, Inc., priority 2019, dated 2026)
